How the values were obtained:
[1] = tested on: AS mice; test: Wire hang test (Hanging Wire test), AS mice; type: in vivo; details: phosphate i.p. over 21 days: D1-D7 3, D8-D14 10, D15-D21 30 mg/kg, maximum 120 sec, ultimately matched wild type, FIG. 3
Method: The wire hang test evaluates muscle strength as well as motor coordination. The set up includes a wire (0.2 cm in diameter×54.5 cm in length) stretched horizontally between two poles and elevated from a padded surface. The test starts when the mouse hangs onto the wire from its two forelimbs and lasts for 120 sec maximum. The time before falling, or the maximum score of 120 sec if no fall occurred, is recorded for each animal.
Four groups 5 mice for each group were used. Controls were administered vehicle and test groups were administered NSI-189 phosphate i.p. over 21 days as follows: D1-D7—3 mg/kg NSI-189 phosphate; D8-D14—10 mg/kg NSI-189 phosphate; D15-D21—30 mg/kg NSI-189 phosphate.
As shown, the AS mice administered only vehicle were not able to hang onto the wire for more than about 20 seconds, whereas AS mice treated with NSI-189 ultimately matched the times of wild type mice at about 100 seconds.

[2] = tested on: hippocampal slices from normal, healthy, young adult mice (field CA1); test: LTP elicited by theta burst stimulation in hippocampal slices treated in vitro, normal mice; type: cell-based; details: 100 nM to 10 μM for up to 3.5 h before theta burst stimulation, applicant's work, Liu et al, SfN Abstract 2016
Method: In work by applicant, hippocampal slices from normal, healthy, young adult mice were treated with various concentrations of NSI-189 (100 nM to 10 μM) for various times up to 3.5 h, before applying theta burst stimulation (TBS) to elicit long-term potentiation (LTP) in field CA1.

[3] = tested on: mice with Angelman syndrome (AS); test: LTP assay on post-mortem hippocampal slices after in vivo dosing, AS mice; details: 30 mg/kg phosphate salt i.p. daily for 18 days, vs vehicle, p<0.05, FIG. 2
Method: (§1) Four groups (n=4/5 per group) of young adult mice (age ˜3 months) were administered 30mg/kg of the phosphate salt of NSI-189 i.p. daily for 13-15 days for behavior assays and for 18 days prior to termination followed by in vitro LTP assays or administered only vehicle. The groups included • (1) mice with Angelman syndrome (AS) treated with NSI-189, • (2) mice with Angelman syndrome (AS) treated with vehicle, • (3) wild-type littermates treated with NSI-189, and • (4) wild-type littermates treated with vehicle.

[4] = tested on: hippocampal brain slices prepared from young adult Angelman mice; test: LTP in hippocampal brain slices treated in vitro, Angelman mice; type: cell-based; details: slices from Angelman mice (maternal Ube3A deletion); transient treatment for 3.5 hours; Liu et al, SfN Abstract 2016
Excerpt: Further, in a mouse model of Angelman syndrome, carrying the same maternal Ube3A deletion affected in human AS patients, the normal LTP is absent.

[5] = tested on: mice with Angelman syndrome (AS); test: Fear-conditioning test, mouse model of Angelman syndrome; type: in vivo; details: 30 mg/kg phosphate salt i.p. daily, 2 weeks, vs vehicle, p<0.01, FIG. 1
Method: as §1
The behavior assay conducted was fear-conditioning test as diagnostic of hippocampal memory function.

[6] = tested on: wild type mice; test: LTP assay on post-mortem hippocampal slices after in vivo dosing, wild type mice; details: 30 mg/kg phosphate salt i.p. daily for 18 days, FIG. 2
Method: as §1

CC(C)CCNc1ncccc1C(=O)N1CCN(Cc2ccccc2)CC1.O=P(O)(O)O [NSI-189]
time before falling (hanging on the wire) [1]: about 100 seconds | effect on long-term potentiation (LTP) in field CA1 [2]: statistically significant enhancement of the normal LTP level | LTP in post-mortem hippocampal slices [3]: restoration of LTP | effect on LTP activity [4]: restore the LTP activity to normal level | freezing time following ring-tone (memory deficit) [5]: memory deficit was diminished | LTP in post-mortem hippocampal slices [6]: improved

Reference: patent publication US20190142829A1, “AMELIORATION OF ANGELMAN'S SYNDROME DEFICIENCIES” (Neuralstem, Inc., priority 2017, published 2019)
